According to ChEMBL document CHEMBL1201862, “PubChem BioAssay data set” (2004):
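Growth conditions: 96-well plates. Treatment: test compound, 48 hours, 5 concentrations. Analysis: linear interpolation between bracketing concentrations; unreached endpoints set to highest concentration. GI50 is the concentration that inhibits growth by half.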 The source made the active and inactive calls. No stated cut-off is given here; in the data, active = GI50 up to about 1.1 µM and inactive = higher.

Key:
Experiment in all cases: inhibition of tumour cell growth, NCI panel, 48 h
ACHN = tested on: ACHN
Hs-578T = tested on: Hs-578T
EKVX = tested on: EKVX
SNB-75 = tested on: SNB-75
HOP-92 = tested on: HOP-92
CAKI-1 = tested on: CAKI-1
NCI/ADR-RES = tested on: NCI/ADR-RES
MOLT-4 = tested on: MOLT-4
SF-295 = tested on: SF-295
PC-3 = tested on: PC-3
NCI-H460 = tested on: NCI-H460
MCF7 = tested on: MCF7
HCT-116 = tested on: HCT-116
HCT-15 = tested on: HCT-15
SK-MEL-2 = tested on: SK-MEL-2
UACC-257 = tested on: UACC-257
MDA-MB-231 = tested on: MDA-MB-231
SF-539 = tested on: SF-539
SK-MEL-28 = tested on: SK-MEL-28
NCI-H522 = tested on: NCI-H522

Row | Structure (SMILES) | GI50 (ACHN) | GI50 (Hs-578T) | GI50 (EKVX) | GI50 (SNB-75) | GI50 (HOP-92) | GI50 (CAKI-1) | GI50 (NCI/ADR-RES) | GI50 (MOLT-4) | GI50 (SF-295) | GI50 (PC-3) | GI50 (NCI-H460) | GI50 (MCF7) | GI50 (HCT-116) | GI50 (HCT-15) [µM] | GI50 (SK-MEL-2) | GI50 (UACC-257) | GI50 (MDA-MB-231) | GI50 (SF-539) | GI50 (SK-MEL-28) | GI50 (NCI-H522)
1 | COc1ccc2c(c1)OC1c3ccccc3OCC21 (configuration not stated) | > 100 µM (inactive) | > 100 µM (inactive) | 63.7 µM (inactive) | 27.4 µM (inactive) | 61.8 µM (inactive) | > 100 µM (inactive) | 60.3 µM (inactive) | 27.7 µM (inactive) | > 100 µM (inactive) | > 100 µM (inactive) | 61.9 µM (inactive) | 88.1 µM (inactive) | 77.3 µM (inactive) | 62.7 | > 100 µM (inactive) | > 100 µM (inactive) | > 100 µM (inactive) | > 100 µM (inactive) | > 100 µM (inactive) | 
2 | N=C(N)SCc1ccc2c(c1)S(=O)(=O)c1ccccc1O2 | 15.8 µM (inactive) | 22.9 µM (inactive) | 17 µM (inactive) | 14.6 µM (inactive) | 15.7 µM (inactive) | 21.3 µM (inactive) | 39.8 µM (inactive) | 19.1 µM (inactive) | 21.2 µM (inactive) | 17.7 µM (inactive) | 19.6 µM (inactive) | 14.5 µM (inactive) | 22 µM (inactive) | 25.8 | 16.4 µM (inactive) | 16.3 µM (inactive) | 39.8 µM (inactive) | 26.1 µM (inactive) | 16.4 µM (inactive) | 
3 | Cc1cc2c(cc1C)[n+]([O-])c(N1CCN(c3ccc([N+](=O)[O-])cc3)CC1)c(C#N)[n+]2[O-] | 15.3 µM (inactive) | 34.6 µM (inactive) | 26 µM (inactive) | 4.61 µM (inactive) | 23.2 µM (inactive) | 83 µM (inactive) | 26.2 µM (inactive) |  | 15.2 µM (inactive) | 32.3 µM (inactive) | 20.3 µM (inactive) | 28.6 µM (inactive) | 61.7 µM (inactive) | 85.3 | 22 µM (inactive) | 85.9 µM (inactive) | 20 µM (inactive) |  | > 100 µM (inactive) | 26.2 µM (inactive)
4 | O=C1CCC[C@@H]2NC[C@@H](c3ccc4c(c3)OCO4)[C@H]12 | > 25 µM (inactive) | > 25 µM (inactive) | > 25 µM (inactive) | > 25 µM (inactive) | > 25 µM (inactive) | > 25 µM (inactive) | > 25 µM (inactive) | > 25 µM (inactive) | > 25 µM (inactive) | > 25 µM (inactive) | > 25 µM (inactive) | > 25 µM (inactive) | > 25 µM (inactive) | > 25 | > 25 µM (inactive) | > 25 µM (inactive) | > 25 µM (inactive) |  | > 25 µM (inactive) | > 25 µM (inactive)
5 | Cc1nc2c(=O)n(C)c(=O)n(C)c2o1 | > 100 µM (inactive) | > 100 µM (inactive) | > 100 µM (inactive) | > 100 µM (inactive) | > 100 µM (inactive) | > 100 µM (inactive) | > 100 µM (inactive) | > 100 µM (inactive) | > 100 µM (inactive) | > 100 µM (inactive) | > 100 µM (inactive) | > 10 µM (inactive) | > 100 µM (inactive) | > 100 | > 100 µM (inactive) | > 100 µM (inactive) | > 100 µM (inactive) | > 100 µM (inactive) |  | > 100 µM (inactive)
6 | CC(=O)C(I(OS(=O)(=O)c1ccc(C)cc1)c1ccccc1)=P(c1ccccc1)(c1ccccc1)c1ccccc1 | > 100 µM (inactive) | 23 µM (inactive) | 28 µM (inactive) |  | 10.5 µM (inactive) | > 100 µM (inactive) | > 100 µM (inactive) | 26.4 µM (inactive) | 99.3 µM (inactive) | 26.5 µM (inactive) | 58.5 µM (inactive) | 35.8 µM (inactive) | 21.2 µM (inactive) | > 100 | 16 µM (inactive) | 22.6 µM (inactive) | 23.4 µM (inactive) | 18.2 µM (inactive) | 18 µM (inactive) | 11.8 µM (inactive)
7 | O=C(O)CCCc1ccc2ccccc2c1 | > 100 µM (inactive) | > 100 µM (inactive) | > 100 µM (inactive) |  | > 100 µM (inactive) | > 100 µM (inactive) | > 100 µM (inactive) | > 100 µM (inactive) | > 100 µM (inactive) | > 100 µM (inactive) | > 100 µM (inactive) | > 100 µM (inactive) | > 100 µM (inactive) | > 100 | > 100 µM (inactive) | > 100 µM (inactive) | > 100 µM (inactive) | > 100 µM (inactive) | > 100 µM (inactive) | > 100 µM (inactive)
